Experimental data taken from patent US12304890B2, “R-type pyridyloxycarboxylic acid, salt and ester derivative thereof, and preparation method therefor, and herbicidal composition and application thereof” (Qingdao Kingagroot Chemical Compound Co., Ltd., priority 2018, dated 2025).

Assays:
Type in all cases: in vivo
Echinochloa crusgalli = assay: Post-emergence test experiment, Echinochloa crusgalli; settings: for Activity level (growth inhibition rate), Echinochloa crusgalli: 1000 g a.i./ha, 3 weeks in greenhouse, fresh weight inhibition
Outline: (§1)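 Growth inhibition is given as reduction in fresh weight, assessed 3 weeks post-treatment in the greenhouse. Spray solutions (acetone, tween-80, water, with 1.5 L/ha methyl oleate concentrate synergist) were applied to weeds and crops at 2-3 leaves, 2 weeks from sowing.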

Digitaria sanguinalis = assay: Post-emergence test experiment, Digitaria sanguinalis; settings: for Activity level (growth inhibition rate), Digitaria sanguinalis: 1000 g a.i./ha, 3 weeks in greenhouse, fresh weight inhibition
Outline: as §1

[1] = system: Semen Euphorbiae Lathyridis; assay: Post-emergence test experiment, Semen Euphorbiae Lathyridis; settings: 3 weeks
Outline: as §1

rice = assay: Post-emergence test experiment, rice (crop selectivity); settings: 3 weeks
Outline: as §1

[2] = system: Monocotyledonous and dicotyledonous weed seeds and main crop seeds; assay: Post-emergence test experiment, other weeds and crops (Table 4, 1000 g a.i./ha); settings: 3 weeks in greenhouse, fresh weight inhibition
Outline: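 Growth inhibition is scored on fresh weight. Spray solutions were made in acetone with tween-80, diluted in water, plus 1.5 L/ha methyl oleate emulsible concentrate. Plants from greenhouse-grown weed and crop seeds were treated post-emergence at 2-3 leaves, 2 weeks after sowing.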

rice (japonica rice) = assay: Transplanted rice safety evaluation; settings: transplanted 3-leaf japonica rice, 1000 g a.i./ha, 21 days after treatment
Protocol: In addition, the rice field soil that loaded into the 1/1,000,000 ha pot was leveled to keep water storage at 3-4 cm depth. The 3-leaf stage rice (japonica rice) was transplanted at 3 cm of transplanting depth the next day. The compound of the present invention was treated by the same way after 5 days of transplantation.
(§2) The fertility condition of Monochoria vaginalis 14 days and rice 21 days after the treatment of the compound of the invention with the naked eye.

Monochoria vaginalis = assay: Weed control effect evaluation in rice field; settings: paddy pot, 0.5 leaf stage, 1000 g a.i./ha, 14 days; weed resistant to pyrazosulfuron-ethyl and penoxsulam
Protocol: Rice field soil was loaded into a 1/1,000,000 ha pot. The seeds of Monochoria vaginalis were sowed and gently covered with soil, then left to stand still in greenhouse in the state of 0.5-1 cm of water storage. It was kept at 3-4 cm of water storage thereafter. The weeds were treated by dripping the WP or SC water diluents prepared according to the common preparation method of the compounds of the present invention with pipette homogeneously to achieve specified effective amount when Monochoria vaginalis reached 0.5 leaf stage.
as §2

[3] = 200 g a.i./ha, 3 weeks, weed resistant to ALS inhibitor and ACCe herbicides
[4] = 400 g a.i./ha, 3 weeks, resistant weed
[5] = 200 g a.i./ha, 3 weeks, weed resistant to cyhalofop-butyl
[6] = 200 g a.i./ha, weed resistant to cyhalofop-butyl

Compound	Echinochloa crusgalli, activity level (growth inhibition rate) (Echinochloa crusgalli; [3])	Echinochloa crusgalli, activity level (growth inhibition rate) (Echinochloa crusgalli; [4])	Activity level (growth inhibition rate), Echinochloa crusgalli (Echinochloa crusgalli)	Digitaria sanguinalis, activity level (growth inhibition rate) (Digitaria sanguinalis; [5])	Digitaria sanguinalis, activity level (growth inhibition rate) (Digitaria sanguinalis; [4])	Activity level (growth inhibition rate), Digitaria sanguinalis (Digitaria sanguinalis)	Semen Euphorbiae Lathyridis, activity level (growth inhibition rate) [1, 6]	Semen Euphorbiae Lathyridis, activity level (growth inhibition rate) ([1]; 400 g a.i./ha, resistant weed)	rice, activity level (growth inhibition rate) (rice; 200 g a.i./ha)	rice, activity level (growth inhibition rate) (rice; 400 g a.i./ha)	Activity level (growth inhibition rate), Abutilon theophrasti Medic. [2]	Activity level (growth inhibition rate), Galium aparine [2]	Activity level (growth inhibition rate), Monochoria Vaginalis [2]	rice, safety level 0-5 (rice (japonica rice))	Monochoria Vaginalis, activity level 0-5 (Monochoria vaginalis)	inhibition at 200 g/ha (Echinochloa crusgalli; Echinochloa crus-galli, 504 h, 200 g a.i./ha, 3 weeks, weed resistant to ALS inhibitor and ACCe herbicides, read-out: Echinochloa crusgalli, activity level (growth inhibition rate)) [%]	inhibition at 200 g/ha (Digitaria sanguinalis; Digitaria sanguinalis, 504 h, 200 g a.i./ha, 3 weeks, weed resistant to cyhalofop-butyl, read-out: Digitaria sanguinalis, activity level (growth inhibition rate)) [%]	inhibition at 200 g/ha ([1]; 504 h, 200 g a.i./ha, weed resistant to cyhalofop-butyl, read-out: Semen Euphorbiae Lathyridis, activity level (growth inhibition rate)) [%]
CCOC(=O)[C@@H](C)Oc1nc(F)c(Cl)c(N)c1Cl [Compound 2-71]	5 (Level 5: the growth inhibition rate is greater than 85%)	5 (Level 5: the growth inhibition rate is greater than 85%)	5 (Level 5: the growth inhibition rate is greater than 85%)	5 (Level 5: the growth inhibition rate is greater than 85%)	5 (Level 5: the growth inhibition rate is greater than 85%)	5 (Level 5: the growth inhibition rate is greater than 85%)	5 (Level 5: the growth inhibition rate is greater than 85%)	5 (Level 5: the growth inhibition rate is greater than 85%)	0 (Level 0: the growth inhibition rate is less than 5%)	2 (Level 2: the growth inhibition rate is equal to or greater than 20% and less than 40%)	5 (Level 5: the growth inhibition rate is greater than 85%)	5 (Level 5: the growth inhibition rate is greater than 85%)	5 (Level 5: the growth inhibition rate is greater than 85%)	0 (Level 0: the growth inhibition rate is less than 5%)	5 (Level 5: the growth inhibition rate is greater than 85%)			
CCOC(=O)COC(=O)C(C)Oc1nc(F)c(Cl)c(N)c1Cl (stereo not shown) [Compound 2-294]	5 (Level 5: the growth inhibition rate is greater than 85%)		5 (Level 5: the growth inhibition rate is greater than 85%)	5 (Level 5: the growth inhibition rate is greater than 85%)		5 (Level 5: the growth inhibition rate is greater than 85%)	5 (Level 5: the growth inhibition rate is greater than 85%)		0 (Level 0: the growth inhibition rate is less than 5%)		5 (Level 5: the growth inhibition rate is greater than 85%)	5 (Level 5: the growth inhibition rate is greater than 85%)	5 (Level 5: the growth inhibition rate is greater than 85%)	0 (Level 0: the growth inhibition rate is less than 5%)	5 (Level 5: the growth inhibition rate is greater than 85%)			
CC(Oc1nc(F)c(Cl)c(N)c1Cl)C(=O)OCc1ccccc1 (stereo not shown) [Compound 2-300]	5 (Level 5: the growth inhibition rate is greater than 85%)		5 (Level 5: the growth inhibition rate is greater than 85%)	5 (Level 5: the growth inhibition rate is greater than 85%)		5 (Level 5: the growth inhibition rate is greater than 85%)	5 (Level 5: the growth inhibition rate is greater than 85%)		0 (Level 0: the growth inhibition rate is less than 5%)		5 (Level 5: the growth inhibition rate is greater than 85%)	5 (Level 5: the growth inhibition rate is greater than 85%)	5 (Level 5: the growth inhibition rate is greater than 85%)	0 (Level 0: the growth inhibition rate is less than 5%)	5 (Level 5: the growth inhibition rate is greater than 85%)			
C[C@@H](Oc1nc(F)c(Cl)c(N)c1Cl)C(=O)SCc1ccc(Cl)cc1 [Compound 2-319]			5 (Level 5: the growth inhibition rate is greater than 85%)			5 (Level 5: the growth inhibition rate is greater than 85%)			0 (Level 0: the growth inhibition rate is less than 5%)		5 (Level 5: the growth inhibition rate is greater than 85%)	5 (Level 5: the growth inhibition rate is greater than 85%)	5 (Level 5: the growth inhibition rate is greater than 85%)	0 (Level 0: the growth inhibition rate is less than 5%)	5 (Level 5: the growth inhibition rate is greater than 85%)	> 85	> 85	> 85
C[C@@H](Oc1nc(F)c(Cl)c(N)c1Cl)C(=O)SCc1ccccn1 [Compound 2-343]	5 (Level 5: the growth inhibition rate is greater than 85%)		5 (Level 5: the growth inhibition rate is greater than 85%)	5 (Level 5: the growth inhibition rate is greater than 85%)		5 (Level 5: the growth inhibition rate is greater than 85%)	5 (Level 5: the growth inhibition rate is greater than 85%)		0 (Level 0: the growth inhibition rate is less than 5%)		5 (Level 5: the growth inhibition rate is greater than 85%)	5 (Level 5: the growth inhibition rate is greater than 85%)	5 (Level 5: the growth inhibition rate is greater than 85%)	0 (Level 0: the growth inhibition rate is less than 5%)	5 (Level 5: the growth inhibition rate is greater than 85%)			
C[C@@H](Oc1nc(F)c(Cl)c(N)c1Cl)C(=O)OCc1ccco1 [Compound 2-348]	5 (Level 5: the growth inhibition rate is greater than 85%)		5 (Level 5: the growth inhibition rate is greater than 85%)	5 (Level 5: the growth inhibition rate is greater than 85%)		5 (Level 5: the growth inhibition rate is greater than 85%)	5 (Level 5: the growth inhibition rate is greater than 85%)		0 (Level 0: the growth inhibition rate is less than 5%)		5 (Level 5: the growth inhibition rate is greater than 85%)	5 (Level 5: the growth inhibition rate is greater than 85%)	5 (Level 5: the growth inhibition rate is greater than 85%)	0 (Level 0: the growth inhibition rate is less than 5%)	5 (Level 5: the growth inhibition rate is greater than 85%)			
